Data reported in US8148531B2 (Chroma Therapeutics Ltd., priority 2005, dated 2012).

Tests used:
[1] = tested on: HUT cell line; assay: Cell inhibition assay (SRB cell viability), HUT; assay type: cell-based; conditions: IC50 range class, 72 h, read-out: Inhibitor Activity vs HUT cell line
Outline: (§1)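 Log-phase cells seeded at 1000 cells/well, grown 24 h, then exposed to compounds (20 uM final) for 72 h. Viability read by sulphorhodamine B staining as % inhibition versus DMSO; IC50 from eight-point sigmoidal variable-slope fit.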

[2] = tested on: U937 cell line; assay: Cell inhibition assay (SRB cell viability), U937; assay type: cell-based; conditions: Homo sapiens, U-937, IC50 range class, 72 h, read-out: Inhibitor Activity vs U937 cell line
Outline: as §1

[3] = target: Aurora-B (Homo sapiens, UniProt Q96GD4); assay: Aurora-B enzyme assay (identical protocol as Aurora-A); assay type: biochemical; conditions: IC50 range class; read-out: Inhibitor Activity vs Aurora-B
Chain of Aurora-B (Q96GD4 whole entry): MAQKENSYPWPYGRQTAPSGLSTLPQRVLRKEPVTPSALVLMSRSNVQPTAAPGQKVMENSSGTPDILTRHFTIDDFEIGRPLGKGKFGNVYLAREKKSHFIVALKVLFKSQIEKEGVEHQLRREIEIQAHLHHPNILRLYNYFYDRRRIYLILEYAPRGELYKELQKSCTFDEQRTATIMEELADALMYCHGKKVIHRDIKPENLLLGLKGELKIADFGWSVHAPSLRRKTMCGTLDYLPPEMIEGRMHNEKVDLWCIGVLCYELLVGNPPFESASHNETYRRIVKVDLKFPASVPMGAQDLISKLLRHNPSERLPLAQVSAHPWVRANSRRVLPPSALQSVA
Protocol: (§2) The ability of compounds to inhibit Aurora-A activity was measured using a simple microplate assay for Aurora-A activity, also suitable for high-throughput screening. In brief, γ-^33P-ATP and Aurora-A were incubated in a myelin basic protein (MBP)-coated Flashplate® to generate a scintillation signal. The plates were formatted to contain the inhibitor, controls, positive control (staurosporin) and blanks. After incubation at 37° C. for 1 hour and a subsequent wash procedure, the plates were read on a TopCount-NXT™.
(§3) IC50 values were determined by non-linear regression analysis, after fitting the data point results to the equation for sigmoidal dose response with variable slope (% activity against log concentration of compound), using Graphpad Prism software.
The Aurora-B enzyme assay follows the identical protocol as Aurora-A.

[4] = tested on: HCT 116 cell line; assay: Cell inhibition assay (SRB cell viability), HCT 116; assay type: cell-based; conditions: Homo sapiens, IC50 range class, 72 h, read-out: Inhibitor Activity vs HCT 116 cell line
Outline: as §1

[5] = target: T1, Aurora-A (Homo sapiens, UniProt O14965); assay: Aurora-A enzyme assay (MBP-coated Flashplate, γ-33P-ATP); assay type: biochemical; conditions: IC50 range class; read-out: Inhibitor Activity vs Aurora-A
T1 sequence (O14965 1-403): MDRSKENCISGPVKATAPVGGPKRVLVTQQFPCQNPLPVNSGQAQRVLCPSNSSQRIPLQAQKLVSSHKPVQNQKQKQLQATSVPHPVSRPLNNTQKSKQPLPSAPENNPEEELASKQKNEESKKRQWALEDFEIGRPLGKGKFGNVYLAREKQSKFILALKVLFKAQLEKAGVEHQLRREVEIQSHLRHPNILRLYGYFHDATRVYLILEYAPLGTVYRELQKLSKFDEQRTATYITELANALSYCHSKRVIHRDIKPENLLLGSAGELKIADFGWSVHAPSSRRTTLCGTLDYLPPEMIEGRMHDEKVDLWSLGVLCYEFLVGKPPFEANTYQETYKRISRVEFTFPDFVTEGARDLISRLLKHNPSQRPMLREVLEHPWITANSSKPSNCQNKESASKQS
Protocol: as §2
The 384-well basic Flashplate® and the γ-^33P-ATP were obtained from PerkinElmer Life Sciences, Boston, Mass.
as §3
Full experimental procedure for this assay can be found within the following reference: Sun, C Journal of Biomolecular Screening 9(5), 2004, 391.

| SMILES | IC50 [1] [µM] | IC50 [2] [µM] | IC50 [3] [µM] | IC50 [4] [µM] | IC50 [5] [µM] |
| --- | --- | --- | --- | --- | --- |
| COc1cc2c(Oc3ccc(NC(=O)c4ccccc4)cc3)ccnc2cc1OCC[C@H](NC(=O)OC(C)(C)C)C(=O)OC1CCCC1 [Example 1, (S)-4-[4-(4-Benzoylamino-phenoxy)-6-methoxy-quinolin-7-yloxy]-2-tert-butoxycarbonylamino-butyric acid cyclopentyl ester] | 1 to 5 | < 1 | > 5 | < 1 | 2 to 5 |
| COc1cc2c(Oc3ccc(NC(=O)c4ccccc4)cc3)ccnc2cc1OCC[C@H](N)C(=O)OC1CCCC1 [Example 2, (S)-2-Amino-4-[4-(4-benzoylamino-phenoxy)-6-methoxy-quinolin-7-yloxy]-butyric acid cyclopentyl ester] | < 1 | < 1 | 2 to 5 | < 1 | 2 to 5 |
| COc1cc2c(Nc3ccc(NC(=O)c4ccccc4)cc3)ccnc2cc1OCC[C@H](N)C(=O)OC1CCCC1 [Example 15, (S)-2-Amino-4-[4-(4-benzoylamino-phenylamino)-6-methoxy-quinolin-7-yloxy]-butyric acid cyclopentyl ester] | 1 to 5 | 1 to 5 | > 5 | 1 to 5 | 2 to 5 |
| COc1cc2c(Sc3ccc(NC(=O)c4ccccc4)cc3)ccnc2cc1OCC[C@H](N)C(=O)OC1CCCC1 [Example 18, (S)-2-Amino-4-[4-(4-benzoylamino-phenylsulfanyl)-6-methoxy-quinolin-7-yloxy]-butyric acid cyclopentyl ester] | < 1 | < 1 | > 5 | < 1 | < 2 |
| COc1cc2c(Sc3ccc(NC(=O)C4CC4)cc3)ccnc2cc1OCC[C@H](N)C(=O)OC1CCCC1 [Example 20, (S)-2-Amino-4-{4-[4-(cyclopropanecarbonyl-amino)-phenylsulfanyl]-6-methoxy-quinolin-7-yloxy}-butyric acid cyclopentyl ester] | < 1 | < 1 | > 5 | < 1 | > 5 |
| COc1cc2c(Oc3ccc(NC(=O)c4ccccc4)cc3)c(Br)cnc2cc1OCC[C@H](N)C(=O)OC1CCCC1 [Example 32] | 1 to 5 | 1 to 5 | > 5 | > 5 | > 5 |
| COc1cc2c(Oc3ccc(NC(=O)Nc4ccccc4)cc3)ccnc2cc1OCC[C@H](N)C(=O)O [Example 96, (S)-2-Amino-4-{6-methoxy-4-[4-(3-phenyl-ureido)-phenoxy]-quinolin-7-yloxy}-butyric acid] |  |  | < 2 |  | < 2 |
| COc1cc2c(Oc3ccc(NC(=O)c4ccccc4)cc3)ccnc2cc1OCC[C@@H](N)C(=O)O [Example 100, (R)-2-Amino-4-[4-(4-benzoylamino-phenoxy)-6-methoxy-quinolin-7-yloxy]-butyric acid] |  |  | < 2 |  | 2 to 5 |
| COc1cc2c(Oc3ccc(NC(=O)Nc4ccccc4)cc3)ccnc2cc1OCC[C@@H](N)C(=O)O [Example 102, (R)-2-Amino-4-{6-methoxy-4-[4-(3-phenyl-ureido)-phenoxy]-quinolin-7-yloxy}-butyric acid] |  |  | < 2 |  | < 2 |
| COc1cc2c(Oc3ccc(NC(=O)Nc4ccc(C(F)(F)F)cc4)cc3)ccnc2cc1OCC[C@@H](N)C(=O)O [Example 105, (R)-2-Amino-4-(6-methoxy-4-{4-[3-(4-trifluoromethyl-phenyl)-ureido]-phenoxy}-quinolin-7-yloxy)-butyric acid] |  |  | < 2 |  | < 2 |
| COc1cc2c(Oc3ccc(NC(=O)c4ccccc4)cc3)ccnc2cc1OCCC[C@H](N)C(=O)O [Example 110, (S)-2-Amino-5-[4-(4-benzoylamino-phenoxy)-6-methoxy-quinolin-7-yloxy]-pentanoic acid] |  |  | < 2 |  | < 2 |
| COc1cc2c(Oc3ccc(NC(=O)Nc4ccccc4)cc3)ccnc2cc1OCCC[C@H](N)C(=O)O [Example 112, (S)-2-Amino-5-{6-methoxy-4-[4-(3-phenyl-ureido)-phenoxy]-quinolin-7-yloxy}-pentanoic acid] |  |  | < 2 |  | < 2 |
| COc1cc2c(Oc3ccc(NC(=O)Nc4ccc(C(F)(F)F)cc4)cc3)ccnc2cc1OCCC[C@H](N)C(=O)O [Example 114, (S)-2-Amino-5-(6-methoxy-4-{4-[3-(4-trifluoromethyl-phenyl)-ureido]-phenoxy}-quinolin-7-yloxy)-pentanoic acid] |  |  | < 2 |  | < 2 |
| COc1cc2c(Oc3ccc(NC(=O)c4ccccc4)cc3)ccnc2cc1OCCC[C@@H](N)C(=O)O [Example 116, (R)-2-Amino-5-[4-(4-benzoylamino-phenoxy)-6-methoxy-quinolin-7-yloxy]-pentanoic acid] |  |  | < 2 |  | < 2 |
| COc1cc2c(Oc3ccc(NC(=O)Nc4ccccc4)cc3)ccnc2cc1OCCC[C@@H](N)C(=O)O [Example 118, (R)-2-Amino-5-{6-methoxy-4-[4-(3-phenyl-ureido)-phenoxy]-quinolin-7-yloxy}-pentanoic acid] |  |  | < 2 |  | < 2 |
| COc1cc2c(Oc3ccc(NC(=O)Nc4ccc(C(F)(F)F)cc4)cc3)ccnc2cc1OCCC[C@@H](N)C(=O)O [Example 120, (R)-2-Amino-5-(6-methoxy-4-{4-[3-(4-trifluoromethyl-phenyl)-ureido]-phenoxy}-quinolin-7-yloxy)-pentanoic acid] |  |  | < 2 |  | < 2 |
| COc1cc2c(Sc3ccc(NC(=O)Nc4ccc(C(F)(F)F)cc4)cc3)ccnc2cc1OCCC[C@@H](N)C(=O)O [Example 122, (R)-2-Amino-5-(6-methoxy-4-{4-[3-(4-trifluoromethyl-phenyl)-ureido]-phenylsulfanyl}-quinolin-7-yloxy)-pentanoic acid] |  |  | < 2 |  | < 2 |
| COc1cc2c(Oc3ccc(NC(=O)Nc4ccc(C(F)(F)F)cc4)cc3F)ccnc2cc1OCCC[C@@H](N)C(=O)O [Example 124, (R)-2-Amino-5-(4-{2-fluoro-4-[3-(4-trifluoromethyl-phenyl)-ureido]-phenoxy}-6-methoxy-quinolin-7-yloxy)-pentanoic acid] |  |  | < 2 |  | < 2 |
| COc1cc2c(Oc3ccc(NC(=O)Nc4ccc(C(F)(F)F)cc4)cc3F)ccnc2cc1OCC[C@H](N)C(=O)O [Example 126, (S)-2-Amino-4-(4-{2-fluoro-4-[3-(4-trifluoromethyl-phenyl)-ureido]-phenoxy}-6-methoxy-quinolin-7-yloxy)-butyric acid] |  |  | < 2 |  | < 2 |
| COc1cc2c(Oc3ccc(NC(=O)c4ccccc4)cc3F)ccnc2cc1OCC[C@H](N)C(=O)O [Example 129, (S)-2-Amino-4-[4-(4-benzoylamino-2-fluoro-phenoxy)-6-methoxy-quinolin-7-yloxy]-butyric acid] |  |  | < 2 |  | < 2 |
| COc1cc2c(Oc3ccc(NC(=O)c4ccccc4)c(F)c3)ccnc2cc1OCC[C@H](N)C(=O)O [Example 131, (S)-2-Amino-4-[4-(4-benzoylamino-3-fluoro-phenoxy)-6-methoxy-quinolin-7-yloxy]-butyric acid] |  |  | 2 to 5 |  | > 5 |
| COc1cc2c(Oc3ccc(NC(=O)c4ccccc4)cc3OC)ccnc2cc1OCC[C@H](N)C(=O)O [Example 133, (S)-2-Amino-4-[4-(4-benzoylamino-2-methoxy-phenoxy)-6-methoxy-quinolin-7-yloxy]-butyric acid] |  |  | 2 to 5 |  | 2 to 5 |
| COc1cc2c(Oc3ccc(NCc4ccccc4)cc3)ccnc2cc1OCC[C@H](N)C(=O)O [Example 139, (S)-2-Amino-4-[4-(4-benzylamino-phenoxy)-6-methoxy-quinolin-7-yloxy]-butyric acid] |  |  | 2 to 5 |  | 2 to 5 |
| COc1cc2c(Oc3ccc(CNC(=O)c4ccccc4)cc3)ccnc2cc1OCC[C@H](N)C(=O)O [Example 142, (S)-2-Amino-4-{4-[4-(benzoylamino-methyl)-phenoxy]-6-methoxy-quinolin-7-yloxy}-butyric acid] |  |  | < 2 |  | 2 to 5 |
